# Columns and labels:
# [1] = target: T1, bromodomain-containing protein 4 (BRD4) (Homo sapiens, UniProt O60885); assay: BRD4 AlphaScreen counterscreen assay (H4 peptide binding to BRD4); settings: counter screen, Fig. 3c
# T1 construct: His-tagged BRD4-BD1 was purchased from BPS Bioscience (#31042); purchased BPS Bioscience 31042
# Protocol: In this study, we also developed a LANCE time-resolved fluorescence energy transfer (TR-FRET) assay as a secondary assay for our screening. The His-tagged HMGA2 and biotinylated oligomer FL814 were linked to Europium-labeled anti-6 × His antibody and APC-labeled streptavidin, respectively. A series of DNA binding studies were performed to determine the optimal conditions for the secondary Assay (Fig. S2). After these experiments, 12.5 nM of FL814 and 62.5 nM of HMGA2 were chosen for the assay, which is the same for the primary assay. The assay tolerated up to 0.25% DMSO without any significant change in signal (Fig. S2c). For a counterscreen assay to exclude those compounds that nonspecifically bind to the protein surface, an AlphaScreen assay of H4 peptide binding to bromodomain-containing protein 4 (BRD4) was adopted (Fig. S2e). Since we are looking for compounds with anti-metastasis or anti-obesity activities, compounds with high levels of cytotoxicity are undesirable. […]
# Using a Labcyte Echo 555 acoustic dispenser 5 nL of DMSO were added to columns 1–4 and 45–48 of a white 1536 well plate, while 5 nL of 2 mM compounds in DMSO were added to columns 5–44. […] After an overnight incubation at room temperature the plates were read on a Perkin Elmer Envision multimode plate reader in AlphaScreen mode.
# BTSC#83 [2] = assay: Growth curves (CellTiter), BTSC#83; assay type: cell-based; settings: up to 200 μM
# Protocol: BTSC#83 and BTSC#30p and their culture conditions have been described. For growth curves, suspension cultures were mechanically disaggregated and filtered through 37 µm filters (StemCell Technologies, Vancouver, Canada) in order to obtain bona fide single-cell suspension. […] Cell growth was assayed at the indicated time using the CellTiter Assay System (Promega). The growth conditions of 8505c anaplastic thyroid carcinoma cells and mouse Embryonic Fibroblasts (MEFs) knock-out for HMGA1, HMGA2, and HMGA1/A2 double mutant have been described previously[42],[64]. P values were calculated by using two-way ANOVA followed by Sidak’s multiple comparison test.
# BTSC#83 [3] = assay: Western blotting and qRT-PCR expression analysis, BTSC#83; assay type: cell-based
# Protocol: The single-cell suspension was obtained by mechanical disaggregation of the spheres and total proteins were extracted 48 h later, as previously described. After separation by SDS–polyacrylamide gel electrophoresis, proteins were blotted on nitrocellulose membranes (GE Healthcare Europe Gmb) and hybridized with the following antibodies: anti-HMGA1, anti-HMGA2 (Genetex) or affinity-purified anti-HMGA2, anti-α-actin (SantaCruz Biotechnologies). The single-cell suspension was obtained by mechanical disaggregation of the spheres and RNA was extracted 48 h later, by using Direct-zol RNA MiniPrep (Zymo Research). One μg of RNA was retrotranscribed, by using QuantiTect® Reverse Transcription Kit (Qiagen) and qRT-PCR was performed as described. The 2^–ΔΔCt formula was used to calculate the differential gene expression.
# [4] = system: anaplastic thyroid carcinoma cell line 8505c; assay: Chromatin immunoprecipitation (ChIP) of HMGA2 on ID2 promoter regions A and B; assay type: cell-based, human; settings: 6 days
# From the text: The role of HMGA1 and HMGA2 in regulating ID2 transcription was confirmed by analyzing its expression in mouse embryonic fibroblasts (MEFs) knock-out for HMGA1, HMGA2, and the A1/A2 double mutant, respectively. […] We identified two AT-rich regions, hereafter indicated as “region A” and “region B”, in the human ID2 promoter, containing the HMGA2 consensus sequence[26] (Table S2) for our ChIP experiments. Due to availability, the high proliferation rate, and the expression of HMGA proteins, the anaplastic thyroid carcinoma cell line 8505c was used.
# Chromatin immunoprecipitation was performed as described. Briefly, for each sample, 5 × 10^6 cells were collected by trypsinization and cross-linked with 1% formaldehyde; after sonication, the samples were immunoprecipitated with 10 µL anti-HMGA2 antibody (Genetex) or with control normal rabbit IgG and the chromatin was extracted. qPCR amplification was performed on 6 µL of immunoprecipitated DNA, using primers amplifying regions A and B of the ID2 promoter (Table S2). Ct values of samples precipitated with anti-HMGA2 and IgG antibodies were normalized with Ct values of input DNA. Fold change enrichment was calculated in comparison to normalized IgG, using the 2^−ΔΔCt formula. P values were calculated by using one-way ANOVA followed by Sidak’s multiple comparison test.
# [5] = no reference given; cited from earlier work
structure (smiles),measurement,setting,value
Cc1ccc(C(=O)Nc2ccc(S(=O)(=O)O)c3cc(S(=O)(=O)O)cc(S(=O)(=O)O)c23)cc1NC(=O)c1cccc(NC(=O)Nc2cccc(C(=O)Nc3cc(C(=O)Nc4ccc(S(=O)(=O)O)c5cc(S(=O)(=O)O)cc(S(=O)(=O)O)c45)ccc3C)c2)c1 [suramin],inhibition of H4 peptide binding to BRD4,[1],did not inhibit H4 peptide binding to BRD4
same,cell growth,BTSC#83 [2],did not significantly affect the cell growth
same,expression of HMGA1,BTSC#83 [3]; Western blotting and qRT-PCR,slightly reduced
same,expression of HMGA2,BTSC#83 [3]; Western blotting and qRT-PCR,slightly reduced
same,expression of SNAIL,"BTSC#83 [3]; qRT-PCR, 100 µM for 48 h",significantly reduced
same,HMGA2 binding to ID2 promoter regions A and B (ChIP),[4]; 100 µM,did not detect significant HMGA2 binding reduction
same,HMGA2 binding to ID2 promoter regions A and B (ChIP),[4]; 200 µM,drastic reduction in the enrichment
same,oral bioavailability,[5],not orally bioavailable
